Converted amounts (≈) assume the structure as drawn. Like-named read-outs stand apart in the source and are kept apart here.
Columns and labels:
[1] = test system: Bordetella bronchiseptica; assay: broth-dilution microtiter MIC test; type: cell-based; settings: Bordetella bronchiseptica; broth-dilution microtiter; read-out: MIC
Procedure: (§1) The MIC's in Table III were determined by standard agar-dilution assays. The MIC's in Table IV were obtained using conventional brothdilution microtiter tests.

[2] = test system: Mycoplasma hyopneumoniae S5972; assay: broth-dilution microtiter MIC test; type: cell-based; settings: Mesomycoplasma hyopneumoniae, S5972
Procedure: as §1

Mycoplasma hyorhinis 29E = assay: broth-dilution microtiter MIC test; type: cell-based; settings: Mycoplasma, 29E
Procedure: as §1

[3] = test system: Mycoplasma gallisepticum 29C; assay: broth-dilution microtiter MIC test; type: cell-based; settings: Mycoplasmoides gallisepticum, 29C
Procedure: as §1

[4] = test system: Pasteurella hemolytica 23C; assay: broth-dilution microtiter MIC test; type: cell-based; settings: Pasteurella, 23C
Procedure: as §1

[5] = test system: Pasteurella multocida 22A; assay: broth-dilution microtiter MIC test; type: cell-based; settings: Pasteurella multocida, 22A
Procedure: as §1

[6] = test system: Pasteurella hemolytica 22C; assay: broth-dilution microtiter MIC test; type: cell-based; settings: Pasteurella, 22C
Procedure: as §1

[7] = test system: Pasteurella multocida 40G; assay: broth-dilution microtiter MIC test; type: cell-based; settings: Pasteurella multocida, 40G
Procedure: as §1

[8] = test system: Staphylococcus aureus 19C; assay: broth-dilution microtiter MIC test; type: cell-based; settings: Staphylococcus aureus, 19C
Procedure: as §1

[9] = test system: Mycoplasma gallisepticum 36H; assay: broth-dilution microtiter MIC test; type: cell-based; settings: Mycoplasmoides gallisepticum, 36H
Procedure: as §1

Mycoplasma synoviae 40A = assay: broth-dilution microtiter MIC test; type: cell-based; settings: Mycoplasmopsis synoviae, 40A
Procedure: as §1

Streptococcus sp. 19F = assay: broth-dilution microtiter MIC test; type: cell-based; settings: Streptococcus, SP.19F
Procedure: as §1

[10] = test system: Pasteurella multocida 17E; assay: broth-dilution microtiter MIC test; type: cell-based; settings: Pasteurella multocida, 17E
Procedure: as §1

[11] = test system: Pasteurella multocida 60A; assay: broth-dilution microtiter MIC test; type: cell-based; settings: Pasteurella multocida, 60A
Procedure: as §1

[12] = test system: Mycoplasma gallisepticum 15E; assay: broth-dilution microtiter MIC test; type: cell-based; settings: Mycoplasmoides gallisepticum, 15E
Procedure: as §1

[13] = test system: Pasteurella multocida 68C; assay: broth-dilution microtiter MIC test; type: cell-based; settings: Pasteurella multocida, 68C
Procedure: as §1

[14] = test system: Pasteurella hemolytica 41D; assay: broth-dilution microtiter MIC test; type: cell-based; settings: Pasteurella, 41D
Procedure: as §1

[15] = test system: Klebsiella pneumoniae X68; assay: standard agar-dilution MIC assay; type: cell-based; settings: Klebsiella pneumoniae, X68; agar-dilution; read-out: MIC
Procedure: as §1

[16] = test system: Haemophilus influenzae C.L.; assay: standard agar-dilution MIC assay; type: cell-based; settings: Haemophilus influenzae
Procedure: as §1

[17] = test system: Staphylococcus aureus X400; assay: standard agar-dilution MIC assay; type: cell-based; settings: Staphylococcus aureus, X400
Procedure: as §1

[18] = test system: Staphylococcus epidermidis 222; assay: standard agar-dilution MIC assay; type: cell-based; settings: Staphylococcus epidermidis, 222
Procedure: as §1

[19] = test system: Streptococcus pyogenes C203; assay: standard agar-dilution MIC assay; type: cell-based; settings: Streptococcus pyogenes, C203
Procedure: as §1

Escherichia coli EC14 = assay: standard agar-dilution MIC assay; type: cell-based; settings: agar-dilution, read-out: MIC
Procedure: as §1

[20] = test system: Streptococcus Group D 2041; assay: standard agar-dilution MIC assay; type: cell-based; settings: GROUPD2041
Procedure: as §1

[21] = test system: Haemophilus influenzae 76; assay: standard agar-dilution MIC assay; type: cell-based; settings: Haemophilus influenzae, 76
Procedure: as §1

[22] = test system: Pseudomonas aeruginosa X239; assay: standard agar-dilution MIC assay; type: cell-based; settings: Pseudomonas aeruginosa, X239; agar-dilution; read-out: MIC
Procedure: as §1

[23] = test system: Staphylococcus aureus V41; assay: standard agar-dilution MIC assay; type: cell-based; settings: Staphylococcus aureus, V41
Procedure: as §1

[24] = test system: Staphylococcus aureus X1.1; assay: standard agar-dilution MIC assay; type: cell-based; settings: Staphylococcus aureus, X1.1
Procedure: as §1

[25] = test system: Staphylococcus epidermidis EPI1; assay: standard agar-dilution MIC assay; type: cell-based; settings: Staphylococcus epidermidis, EPI1
Procedure: as §1

[26] = test system: Streptococcus Group D X66; assay: standard agar-dilution MIC assay; type: cell-based; settings: read-out: MIC
Procedure: as §1

[27] = test system: Staphylococcus aureus S13E; assay: microbe, parasite or virus in culture; type: cell-based; settings: Staphylococcus aureus, S13E
Procedure: as §1

[28] = test system: Streptococcus pneumoniae Park I; assay: microbe, parasite or virus in culture; type: cell-based; settings: Streptococcus pneumoniae
Procedure: as §1

[29] = test system: Streptococcus pyogenes C203; assay: protection of mice experimentally infected with S. pyogenes C203; type: in vivo; settings: mice, mg/kg × 2, doses given 1 and 4 hours postinfection, read-out: ED50
Procedure, shortened: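 Activity is given as ED50, the mg/kg dose (×2) protecting half of the mice infected with S. pyogenes C203. Compound was dosed 1 and 4 h after infection.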

[30] = broth-dilution microtiter, read-out: MIC

Row | SMILES | MIC [1] [µg/mL] | MIC [3] [µg/mL] | MIC [4] [µg/mL] | MIC [5] [µg/mL] | MIC [9] [µg/mL] | MIC (Streptococcus sp. 19F) [µg/mL] | MIC [14] [µg/mL] | MIC [15] [µg/mL] | MIC [16] [µg/mL] | MIC [17] [µg/mL] | MIC (Escherichia coli EC14) [µg/mL] | MIC [20] [µg/mL] | MIC [22] [µg/mL] | MIC [23] [µg/mL] | MIC [24] [µg/mL] | MIC [25] [µg/mL] | MIC [26] [µg/mL] | MIC [27] [µg/mL] | ED50 ([29]; C203, Oral) [mg/kg] | ED50 ([29]; C203, sc, Subcutaneous) [mg/kg] | also measured
1 | CCC1OC(=O)CC(O)C(C)C(OC2OC(C)C(OC3CC(C)(O)C(O)C(C)O3)C(N(C)C)C2OC(C)=O)C(CC=O)CC(C)C(=O)C=CC(C)=CC1COC1OC(C)C2OC(=O)OC2C1OC (stereo not shown) [Compound 48] | > 50 | 0.195 (≈ 0.201 µM) | 50 (≈ 51.5 µM) | 50 (≈ 51.5 µM) | 50 (≈ 51.5 µM) | 0.39 (≈ 0.402 µM) | 50 (≈ 51.5 µM) | > 128 | 32 (≈ 33 µM) | 2 (≈ 2.06 µM) | > 128 | 2 (≈ 2.06 µM) | > 128 | 1 (≈ 1.03 µM) | 1 (≈ 1.03 µM) | 1 (≈ 1.03 µM) | 2 (≈ 2.06 µM) | 1 (≈ 1.03 µM) | 28 | 1.53 | MIC [2, 30]: 0.097 µg/mL (≈ 0.1 µM); MIC (Mycoplasma hyorhinis 29E; [30]): 1.56 µg/mL (≈ 1.61 µM); MIC [6, 30]: > 50 µg/mL; MIC [7, 30]: 25 µg/mL (≈ 25.8 µM); MIC [8, 30]: 1.56 µg/mL (≈ 1.61 µM); MIC (Mycoplasma synoviae 40A; [30]): 0.097 µg/mL (≈ 0.1 µM); MIC ([10]; broth-dilution microtiter, Bovine isolate, read-out: MIC): 12.5 µg/mL (≈ 12.9 µM); MIC ([11]; broth-dilution microtiter, Avian isolate, read-out: MIC): 25 µg/mL (≈ 25.8 µM); MIC [12, 30]: 12.5 µg/mL (≈ 12.9 µM); MIC [13, 30]: 12.5 µg/mL (≈ 12.9 µM); MIC ([18]; agar-dilution, read-out: MIC): 0.5 µg/mL (≈ 0.515 µM); MIC ([19]; agar-dilution, read-out: MIC): 0.5 µg/mL (≈ 0.515 µM); MIC ([21]; agar-dilution, Ampicillin-resistant strain, read-out: MIC): 16 µg/mL (≈ 16.5 µM); MIC ([28]; agar-dilution, read-out: MIC): 0.12 µg/mL (≈ 0.124 µM)
2 | CCC1OC(=O)CC(O)C(C)C(OC2OC(C)C(O)C(N(C)C)C2O)C(CCOc2ccccc2)CC(C)C(=O)C=CC(C)=CC1COC1OC(C)C2OC(=O)OC2C1OC (stereo not shown) [Compound 53, 20-DH-20-O-Phenyl-lactenocin 3",4"-Carbonate] | > 50 | 0.195 (≈ 0.226 µM) | 50 (≈ 58 µM) | 50 (≈ 58 µM) | 50 (≈ 58 µM) | 3.12 (≈ 3.62 µM) | 50 (≈ 58 µM) | > 128 | 64 (≈ 74.2 µM) | 1 (≈ 1.16 µM) | > 128 | 8 (≈ 9.28 µM) | > 128 | 1 (≈ 1.16 µM) | 1 (≈ 1.16 µM) | 1 (≈ 1.16 µM) | 8 (≈ 9.28 µM) | 1 (≈ 1.16 µM) | 18.7 | 6.1 | MIC [2]: 3.12 µg/mL (≈ 3.62 µM); MIC (Mycoplasma hyorhinis 29E): 25 µg/mL (≈ 29 µM); MIC [6]: 50 µg/mL (≈ 58 µM); MIC [7]: 50 µg/mL (≈ 58 µM); MIC [8]: 0.78 µg/mL (≈ 0.905 µM); MIC (Mycoplasma synoviae 40A): 1.56 µg/mL (≈ 1.81 µM); MIC [10]: 25 µg/mL (≈ 29 µM); MIC [11]: 25 µg/mL (≈ 29 µM); MIC [12]: 50 µg/mL (≈ 58 µM); MIC [13]: 25 µg/mL (≈ 29 µM); MIC [18]: 0.5 µg/mL (≈ 0.58 µM); MIC [19]: 0.5 µg/mL (≈ 0.58 µM); MIC [21]: 32 µg/mL (≈ 37.1 µM); MIC [28]: 2 µg/mL (≈ 2.32 µM)
3 | CCC1OC(=O)CC(O)C(C)C(OC2OC(C)C(O)C(N(C)C)C2O)C(CC=O)CC(C)C(=O)C=CC(C)=CC1COC1OC(C)C2OC(C)(C)OC2C1OC (stereo not shown) [Compound 55, 3",4"-Isopropylidene Derivative of Lactenocin] | > 50 | 0.39 (≈ 0.489 µM) | 50 (≈ 62.7 µM) | 25 (≈ 31.3 µM) | – | – | 50 (≈ 62.7 µM) | > 128 | 16 (≈ 20.1 µM) | 4 (≈ 5.01 µM) | > 128 | 16 (≈ 20.1 µM) | > 128 | 2 (≈ 2.51 µM) | 2 (≈ 2.51 µM) | 2 (≈ 2.51 µM) | 32 (≈ 40.1 µM) | 2 (≈ 2.51 µM) | > 100 | > 10 | MIC [2]: 0.78 µg/mL (≈ 0.977 µM); MIC (Mycoplasma hyorhinis 29E): 50 µg/mL (≈ 62.7 µM); MIC [6]: 50 µg/mL (≈ 62.7 µM); MIC [7]: 25 µg/mL (≈ 31.3 µM); MIC [8]: 3.12 µg/mL (≈ 3.91 µM); MIC [9, 30]: > 50 µg/mL; MIC (Mycoplasma synoviae 40A): 3.12 µg/mL (≈ 3.91 µM); MIC [10]: 25 µg/mL (≈ 31.3 µM); MIC [11]: 50 µg/mL (≈ 62.7 µM); MIC [12, 30]: > 50 µg/mL; MIC [18]: 1 µg/mL (≈ 1.25 µM); MIC [19]: 1 µg/mL (≈ 1.25 µM); MIC [21]: 16 µg/mL (≈ 20.1 µM); MIC [28]: 8 µg/mL (≈ 10 µM)

— patent US4820694A, “Modifications of 3-O-demethylmycinose in macrocin and lactenocin” (priority 1986, dated 1989)
